Structures can show the parent of a compound that is named as a salt. Where two headings read alike, the source gives them in different places.

The target of series [1] is T1, dopamine transporter (DAT) (Homo sapiens, UniProt Q01959).
T1 construct: host or cells: either rat cortical tissue or cells expressing the cloned human transporter
The experiment in a line: In vitro binding affinity for DAT, radioligand [^3H]GBR12935 (Table 1). More on the design: species or system rat or human (cloned). As for the experimental part:
(§1) Selected compounds were assayed in vitro for their binding affinity for the dopamine transporter (DAT), serotonin transporter (SERT), and norepinephrine transporter (NET) using membranes prepared from either the rat cortical tissues or cells expressed with cloned-human transporters and radioligands. Radioligands used were [^3H]paroxetine (SERT), [^3H]nisoxetine (NET), and [^3H]GBR12935 (DAT).

Series [2] concerns the target T2, SERT (Rattus norvegicus, UniProt P31652). Description: In vitro binding assay on rat frontal cortex homogenates using [^3H]paroxetine. Also noted: from tissue; host or cells: frontal cortex of male Sprague-Dawley rats, washed membrane homogenate. The conditions noted are these: mean ± SD, n = 3. On the procedure: In vitro binding assays: Measurement of the inhibition constants (Ki) of the labeled compounds in FIG. 1 on rat frontal cortex homogenates were performed at Columbia University using [^3H]paroxetine, as previously described (Laruelle et al., 1988b). Briefly, male Sprague-Dawley rats (250-300 g) were killed by decapitation. Dissection of the brain was carried out on ice and samples of the frontal cortex were stored at −40° C. until binding assay. After thawing, samples were homogenized in 10 volumes of buffer (50 mM Tris-HCl, pH 7.4, 120 mM NaCl and 5 mM KCl). The homogenates were centrifuged at 10,000 rpm for 10 minutes. Pellets were resuspended in 10 volumes of buffer, incubated at 37° C. for 10 minutes, and centrifuged again. This procedure was then repeated a third time.
For the binding assay, membranes were suspended in buffer at a final protein concentration of 5 mg/mL. Unlabelled drugs were dissolved in dimethyl sulfoxide (DMSO) in borosilicate glass tubes to yield a 1 mM stock solution, from which subsequent serial dilutions were performed with the buffer. Aliquots of tissue preparation were incubated with [^3H]paroxetine (0.1 nM) at 22° C. or 37° C. for 60 minutes in the absence or presence of unlabelled drug (10^−5 to 10^−12 M) to yield a final volume of 0.5 mL (borosilicate glass tubes). Nonspecific binding was defined by incubation with 10 μM of citalopram. Each concentration was performed in triplicates. After incubation, the mixture was rapidly filtered through Whatman GF/B glass fiber filters using a 48-channel cell harvester (Brandel, Gaithersburg, Md.). The filters were washed 3 times with 4 mL each of ice cold buffer, placed in vials with 4 mL Ultima Gold solvent (Packard Instrument Co., Downers Grove, Ill.), and counted the following day for radioactivity in a liquid scintillation counter (Tricarb 1500, Packard Instrument Co., Downers Grove, Ill.). This experiment was performed three times at 22° C. and 37° C., on three different days. Ki values were derived using GraphPad Prism software (San Diego, Calif.).

Series [3] has as its target T3, serotonin transporter (SERT) (Rattus norvegicus, UniProt P31652).
T3 construct: membranes prepared from either the rat cortical tissues or cells expressed with cloned-human transporters; from tissue; host or cells: rat cortical tissue membranes (inferred; the alternative is cells expressing cloned human SERT)
The experiment in a line: In vitro binding affinity for SERT, radioligand [^3H]paroxetine (Table 1). Also noted: species or system rat or human (cloned). On the procedure: as §1

The nature of series [4]: In vitro logP measurement, octanol/phosphate buffer pH 7.4. Type of series: physicochemical. The conditions noted are these: octanol/phosphate buffer pH 7.4, radiolabeled compound, mean ± SD, n = 8. As for the experimental part: In vitro logP measurement: Octanol/water partition coefficient of the radiolabeled compounds were measured at Columbia University, using the method of Wilson et al. (2001), with some modifications. Briefly, 300 to 500 μCi of radioligand in EtOH was added to a separatory funnel containing octanol (20 mL) and phosphate buffer (20 mL, pH 7.4). The mixture was shaken mechanically for 3 minutes and the layers were separated. The octanol layer (15 mL) was transferred to a second separatory funnel containing 15 mL of the phosphate buffer (pH 7.4). The mixture was shaken mechanically for 3 minutes and the layers were separated. This second octanol layer was then partitioned into four test tubes (2 mL each) and the phosphate buffer (2 mL each) added. The test tubes were vortexed for 10 minutes, and then centrifuged for 10 minutes at 1000 rpm to separate the layers. The octanol and aqueous phases (1.0 mL each) were transferred into counting tubes and counted with a gamma counter (Wallac 1480 Wizard 3M Automatic Gamma Counter, Perkin-Elmer, Boston, Mass.). The radioactivity counts were decay-corrected and the partition coefficient calculated as P=counts in octanol/counts in buffer. Eight separate measurements were preformed for each tracer.

In series [5] the target is T4, norepinephrine transporter (NET) (Homo sapiens, UniProt P23975).
T4 construct: host or cells: either rat cortical tissue or cells expressing the cloned human transporter
Description: In vitro binding affinity for NET, radioligand [^3H]nisoxetine (Table 1). Also noted: species or system rat or human (cloned). On the procedure: as §1

The target in series [6] is T2, SERT. More on the design: host or cells: rat brain membranes (for ADAM/IDAM). The conditions noted are these: literature; [^125I] ligands in rat brain membranes; cited from earlier work.
Series [7] has as its system SERT. Description: Experiment 5: PET brain imaging of ^11C and ^18F labeled AFM, AFA, AFE in one baboon. Type of series: in vivo. The conditions noted are these: one adult male baboon, n = 1 to 4 scans, two-compartment model. On the procedure: (§2) General scanning methods were as described in Huang et al. (2002). Arterial input function was measured and corrected for metabolites.
Activity distributed in the brain in accordance to the known density distribution pattern of SERT (Laruelle et al., 1988). […] Data were analyzed with a two-compartment model, using the metabolite-corrected arterial time-activity curve as input function. This analysis provided the regional distribution volumes (VT, mL/g).
The nonspecific distribution volume, measured as the distribution volume of the cerebellum (a region with negligible SERT density) was in a similar range for all tracers (10 to 30 mL/g, Table 16).
The specific to nonspecific partition coefficient, V3″, was calculated as the ratio of VT in the region of interest (ROI) to cerebellum VT minus one. V3″ provides a measure related to receptor parameters as follows: […]

The subject of series [8] is SERT. The conditions noted are these: same baboon, one tissue compartment model.
Description: The animal was then injected with [^18F]AFM (2.60 mCi, 425 Ci/mmol, 1.51 μg) and scanned for 90 minutes. Analysis of the input function and brain uptake was performed as described in the previous section. […] Arterial activity was corrected for parent fraction to form the input function.
Data were analyzed with a one tissue compartment model.
Series [9] in a line: Experiment 4: plasma analysis, [^11C]AFM and [^18F]AFM in the same baboon.
Description: The animal was then injected with [^18F]AFM (2.60 mCi, 425 Ci/mmol, 1.51 μg) and scanned for 90 minutes. […] Arterial activity was corrected for parent fraction to form the input function.
A short description of series [10]: Experiment 5: plasma clearance of ^11C and ^18F labeled AFM, AFA, AFE in one baboon. Type of series: in vivo. The conditions noted are these: one adult male baboon, n = 1 to 4 scans. On the procedure: as §2
A short description of series [11]: Biodistribution of labeled radioligands in male Sprague-Dawley rats. Type of series: in vivo. The conditions noted are these: mean ± SD, n = 3. The text has this: Appropriately labeled compounds were studied in animals to assess their binding characteristics in the brain. Procedures for these biodistribution studies are as follows. […] The brain regions (cerebellum, hippocampus, striatum, frontal cortex, thalamus and hypothalamus), along with samples of blood and part of the tail, were removed, weighed, and counted in a Packard Cobra II gamma counter. The percent injected dose (% ID) of the decay- and tail-corrected activity in the brain regions and blood were calculated based upon C-11 standards prepared from the injection solution, and the % ID/g were calculated using the tissue weights.

The conditions of series [12]: humans, literature; cited from earlier work.
For series [13] the following is noted: literature (Laruelle et al., 1994a); cited from earlier work.
Series [14] addresses SERT. The conditions noted are these: literature; cited from earlier work.
Series [15] deals with SERT. The following applies: literature; cited from earlier work. This is another data set of the same source.
For series [16] the following is noted: baboons (Acton et al., 1999a); cited from earlier work.

T2 sequence (P31652 whole entry): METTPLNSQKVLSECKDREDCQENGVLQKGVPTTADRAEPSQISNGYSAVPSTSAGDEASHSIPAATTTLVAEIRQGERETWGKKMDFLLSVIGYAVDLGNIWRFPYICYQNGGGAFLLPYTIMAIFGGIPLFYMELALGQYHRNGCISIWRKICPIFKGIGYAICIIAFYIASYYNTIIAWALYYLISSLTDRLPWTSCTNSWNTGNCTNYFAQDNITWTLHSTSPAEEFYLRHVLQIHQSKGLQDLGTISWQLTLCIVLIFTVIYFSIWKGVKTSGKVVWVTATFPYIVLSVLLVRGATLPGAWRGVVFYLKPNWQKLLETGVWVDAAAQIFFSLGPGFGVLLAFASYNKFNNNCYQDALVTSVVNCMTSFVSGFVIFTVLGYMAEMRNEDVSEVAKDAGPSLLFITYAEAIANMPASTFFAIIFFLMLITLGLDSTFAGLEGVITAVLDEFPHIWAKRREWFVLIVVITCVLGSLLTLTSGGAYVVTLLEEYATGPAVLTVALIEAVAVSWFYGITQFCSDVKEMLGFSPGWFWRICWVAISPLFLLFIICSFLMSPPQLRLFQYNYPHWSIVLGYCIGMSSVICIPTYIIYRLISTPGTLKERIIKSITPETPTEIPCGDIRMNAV
T1 sequence (Q01959 whole entry, species assumed): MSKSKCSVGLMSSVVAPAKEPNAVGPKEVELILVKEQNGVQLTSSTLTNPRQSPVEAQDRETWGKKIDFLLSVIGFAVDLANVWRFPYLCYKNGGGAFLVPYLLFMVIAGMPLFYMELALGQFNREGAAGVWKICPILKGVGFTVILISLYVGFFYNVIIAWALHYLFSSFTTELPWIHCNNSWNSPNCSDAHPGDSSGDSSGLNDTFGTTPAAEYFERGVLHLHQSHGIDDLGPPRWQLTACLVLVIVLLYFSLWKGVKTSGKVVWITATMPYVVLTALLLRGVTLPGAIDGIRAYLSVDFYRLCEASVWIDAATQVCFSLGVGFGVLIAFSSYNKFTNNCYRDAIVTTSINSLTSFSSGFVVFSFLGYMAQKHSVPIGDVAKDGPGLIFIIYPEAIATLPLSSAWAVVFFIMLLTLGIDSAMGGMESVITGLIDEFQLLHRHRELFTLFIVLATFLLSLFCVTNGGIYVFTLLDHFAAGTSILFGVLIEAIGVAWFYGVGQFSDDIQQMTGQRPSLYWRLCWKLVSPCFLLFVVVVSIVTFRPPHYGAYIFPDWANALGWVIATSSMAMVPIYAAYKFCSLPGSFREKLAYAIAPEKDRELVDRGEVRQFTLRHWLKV
T3 sequence (P31652 whole entry): as the sequence (P31652 whole entry) above
T4 sequence (P23975 whole entry, species assumed): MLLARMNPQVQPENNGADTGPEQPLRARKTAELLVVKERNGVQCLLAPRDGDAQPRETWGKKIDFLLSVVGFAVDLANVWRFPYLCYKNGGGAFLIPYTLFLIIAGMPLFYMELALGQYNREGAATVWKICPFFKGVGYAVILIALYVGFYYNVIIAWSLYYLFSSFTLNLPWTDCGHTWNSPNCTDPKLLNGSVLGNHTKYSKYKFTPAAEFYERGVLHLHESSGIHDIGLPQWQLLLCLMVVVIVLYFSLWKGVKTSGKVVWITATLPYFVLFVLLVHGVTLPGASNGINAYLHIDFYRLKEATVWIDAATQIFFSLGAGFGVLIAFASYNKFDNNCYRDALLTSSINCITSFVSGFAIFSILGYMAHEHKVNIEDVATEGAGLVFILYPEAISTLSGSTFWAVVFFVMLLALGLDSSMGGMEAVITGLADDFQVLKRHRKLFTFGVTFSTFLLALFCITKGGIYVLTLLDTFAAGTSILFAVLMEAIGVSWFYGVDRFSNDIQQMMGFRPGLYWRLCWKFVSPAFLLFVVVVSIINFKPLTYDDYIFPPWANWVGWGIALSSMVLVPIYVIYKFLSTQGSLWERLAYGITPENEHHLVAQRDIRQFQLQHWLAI

The term Ki denotes a measure of affinity in units of concentration, obtained from inhibition or displacement. As a reminder, the logP is a log measure of how a compound divides between an organic and an aqueous phase. As to `CN(C)Cc1ccccc1Sc1ccc(I)cc1N` [ADAM, 2-{2-[(dimethylamino)methyl]phenylthio}-5-iodophenylamine], the Ki in [1] is > 10000 nM; in [2] (22° C., read-out: Ki for SERT at 22° C.) it was 0.32 ± 0.11 nM; in [2] (37° C., read-out: Ki for SERT at 37° C.) it was 0.4 ± 0.16 nM; in series [3] it was 0.32 nM; in series [5] it was 1350 nM; in series [6], 0.15 nM. The compound also came in with a logP in [4] of 3.31 ± 0.13.

Regarding `CN(C)Cc1ccccc1Sc1ccc(I)cc1CO` [[^125I]IDAM], the Ki in series [6] was 0.25 nM.

`CN(C)Cc1ccccc1Sc1ccc(C[18F])cc1N` [[^18F]AFM, [^18F]2-[2-(Dimethylaminomethyl)phenylthio]-5-fluoromethylphenylamine]: the “Cerebellum V (nonspecific distribution volume)” value in series [7] was 23 ± 6 mL/g. Further, the “Thalamus V3″” value in series [8] was found to be 2.27. Also, the “Clearance of the parent compound” value in series [9] is 54 L/h. Further, the “Percent plasma activity corresponding to the parent compound” value was 63.5% in series [9] (2 minutes); 40.0% in series [9] (4 minutes); 21.3% in series [9] (12 minutes); 8.7% in [9] (30 minutes); 5.3% in [9] (60 minutes); 4.6% in [9] (90 minutes). The same compound yielded a Clearance in series [10] of 40 ± 1 L/h. The “% ID/g Blood” value in series [11] (10 min post-injection) was 0.37 ± 0.04 % ID/g; in series [11] (30 min post-injection) it was 0.28 ± 0.02 % ID/g; in series [11] (60 min post-injection), 0.10 ± 0.04 % ID/g; in series [11] (90 min post-injection), 0.08 ± 0.03 % ID/g; in series [11] (120 min post-injection) it was 0.04 ± 0.00 % ID/g. Moreover, the “% ID/g Cerebellum” value was 0.33 ± 0.04 % ID/g in series [11] (10 min post-injection); 0.23 ± 0.03 % ID/g in series [11] (30 min post-injection); 0.13 ± 0.02 % ID/g in series [11] (60 min post-injection); 0.08 ± 0.01 % ID/g in series [11] (90 min post-injection); 0.07 ± 0.02 % ID/g in series [11] (120 min post-injection). For the same compound, the “% ID/g Frontal Ctx.” value in series [11] (10 min post-injection) came out at 0.82 ± 0.14 % ID/g; in series [11] (30 min post-injection), 0.99 ± 0.20 % ID/g; in series [11] (60 min post-injection), 0.71 ± 0.18 % ID/g; in series [11] (90 min post-injection) it was 0.52 ± 0.19 % ID/g; in series [11] (120 min post-injection), 0.38 ± 0.09 % ID/g. In addition, the “% ID/g Hippocamp.” value is on record as 0.51 ± 0.07 % ID/g in series [11] (10 min post-injection); 0.64 ± 0.12 % ID/g in [11] (30 min post-injection); 0.45 ± 0.09 % ID/g in [11] (60 min post-injection); 0.36 ± 0.12 % ID/g in [11] (90 min post-injection); 0.28 ± 0.05 % ID/g in series [11] (120 min post-injection). Further, the “% ID/g Hypothal.” value in series [11] (10 min post-injection) stood at 0.70 ± 0.08 % ID/g; in series [11] (30 min post-injection), 0.82 ± 0.16 % ID/g; in series [11] (60 min post-injection) it was 0.71 ± 0.14 % ID/g; in [11] (90 min post-injection), 0.58 ± 0.13 % ID/g; in series [11] (120 min post-injection) it was 0.55 ± 0.08 % ID/g. Moreover, the “% ID/g Striatum” value is recorded as 0.69 ± 0.15 % ID/g in series [11] (10 min post-injection); 0.83 ± 0.12 % ID/g in series [11] (30 min post-injection); 0.57 ± 0.12 % ID/g in series [11] (60 min post-injection); 0.45 ± 0.17 % ID/g in series [11] (90 min post-injection); 0.42 ± 0.10 % ID/g in series [11] (120 min post-injection). Also, the “% ID/g Thalamus” value in series [11] (10 min post-injection) was 0.72 ± 0.13 % ID/g; in [11] (30 min post-injection), 0.88 ± 0.06 % ID/g; in [11] (60 min post-injection) it was 0.67 ± 0.15 % ID/g; in series [11] (90 min post-injection), 0.50 ± 0.15 % ID/g; in [11] (120 min post-injection), 0.56 ± 0.10 % ID/g.

The term melting point denotes the temperature, or range, at which the solid turns liquid. Compound `CN(C)Cc1ccccc1Sc1ccc(CF)cc1N` (as salt: tartrate) [AFM, 2-(2-(Dimethylaminomethyl)phenylthio)-5-fluoromethylphenylamine] displayed a melting point of 142 to 143 °C.

Consider `COc1c(O[11CH3])cccc1[C@H](O)C1CCN(CCc2ccc(F)cc2)CC1` [[^11C]MDL 100907], for which the “VT CER (nonspecific distribution volume)” value in [12] was 18 ± 4 mL/g.

`CN(C)Cc1ccccc1Sc1ccc([125I])cc1N` [[^125I]ADAM]: the Ki in series [6] is 0.15 nM.

Regarding `COC(=O)C1C(c2ccc([123I])cc2)CC2CCC1N2C` (stereo not drawn) [[^123I]β-CIT, [^123I]2β-carbomethoxy-3β-(4-iodophenyl)tropane], in series [12], the “VT CER (nonspecific distribution volume)” value was 28 ± 3 mL/g. In addition, the Plasma free fraction in series [13] is listed as 40±5%.

For orientation: Kd means the constant that tells how readily two partners part at equilibrium. Regarding `CN(C)Cc1ccccc1Sc1ccc(I)cc1CO` [[^123I]IDAM, 5-iodo-2-((2-((dimethylamino)methyl)phenyl)thio)benzyl alcohol], in series [14], the Kd is 0.25 nM.

Take `CN(C)Cc1ccccc1Sc1ccc([123I])cc1N` [[^123I]ADAM]: the “Target to background ratio in vivo compared to [^123I]IDAM” value in [15] is “four times higher”. Also, in [16], the “VT CER measured with SPECT” value is 2.25 ± 0.46 mL/g.
